# Source: patent US20260297080A1, “BICYCLIC COMPOUNDS AS CDK INHIBITORS” (BeOne Medicines I GmbH, priority 2022, published 2026)
# What was measured:
# CDK2/Cyclin E1 = CDK2/Cyclin E1 (Homo sapiens, UniProt P24941); assay: CDK2/Cyclin E1 Biochemical Assay (TR-FRET), 0.060 mM ATP; conditions: 0.15 μM Rb (Ser780)-biotin substrate, pH7.0, 60 min preincubation, 120 min reaction, room temperature
# Outline: (§1)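 Phosphorylation of a biotin-tagged Rb Ser780 peptide (0.15 μM) is measured by time-resolved FRET between a europium-labelled phospho-specific antibody and streptavidin-XL665. Compound (0–10 μM) sits with enzyme 60 min first; the kinase reaction then proceeds 120 min at room temperature, pH 7.0.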
# CDK1/Cyclin B1 = CDK1/Cyclin B1 (Homo sapiens, UniProt P06493); assay: CDK1/Cyclin B1 Biochemical Assay (TR-FRET), 0.015 mM ATP; conditions: 0.15 μM Rb (Ser780)-biotin substrate, pH7.0, 60 min preincubation, 120 min reaction, room temperature
# Sequence of CDK1/Cyclin B1 (P06493 whole entry): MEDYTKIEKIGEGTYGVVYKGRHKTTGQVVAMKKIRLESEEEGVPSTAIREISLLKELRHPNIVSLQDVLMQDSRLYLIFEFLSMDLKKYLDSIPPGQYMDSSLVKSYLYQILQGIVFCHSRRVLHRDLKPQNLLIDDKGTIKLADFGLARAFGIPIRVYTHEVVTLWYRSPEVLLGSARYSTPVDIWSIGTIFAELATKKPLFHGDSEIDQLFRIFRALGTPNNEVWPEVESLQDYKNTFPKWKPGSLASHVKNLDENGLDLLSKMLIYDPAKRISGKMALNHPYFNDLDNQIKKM
# Sequence of CDK1/Cyclin B1 (P14635 whole entry partner): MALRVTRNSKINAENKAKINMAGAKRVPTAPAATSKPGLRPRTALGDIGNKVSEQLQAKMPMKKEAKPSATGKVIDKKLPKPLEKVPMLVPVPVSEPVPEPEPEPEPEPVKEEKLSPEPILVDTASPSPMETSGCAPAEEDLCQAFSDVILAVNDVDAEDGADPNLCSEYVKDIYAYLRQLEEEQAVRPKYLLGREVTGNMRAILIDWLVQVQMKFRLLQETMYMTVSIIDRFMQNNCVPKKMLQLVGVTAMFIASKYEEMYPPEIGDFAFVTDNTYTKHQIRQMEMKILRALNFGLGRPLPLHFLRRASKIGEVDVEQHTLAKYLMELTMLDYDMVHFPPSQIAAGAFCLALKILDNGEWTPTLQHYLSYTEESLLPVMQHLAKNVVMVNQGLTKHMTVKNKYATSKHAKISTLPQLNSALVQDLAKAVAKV
# Outline: as §1
Compound,IC50 (CDK2/Cyclin E1) [nM],IC50 (CDK1/Cyclin B1) [nM]
"CC(C)NC(=O)O[C@H]1CC[C@@H](c2cc(Nc3ccc4c(c3)CCNS4(=O)=O)n[nH]2)C1 (relative stereo) [Example 172, cis-3-(3-((1,1-dioxido-3,4-dihydro-2H-benzo[e][1,2]thiazin-6-yl)amino)-1H-pyrazol-5-yl)cyclopentyl isopropylcarbamate]",0.7,14
"CC(C)NC(=O)O[C@H]1CC[C@@H](c2cc(Nc3ccc4c(c3F)CN(Cc3ccccc3)S4(=O)=O)n[nH]2)C1 (relative stereo) [Example 75, cis-3-(3-((2-benzyl-4-fluoro-1,1-dioxido-2,3-dihydrobenzo[d]isothiazol-5-yl)amino)-1H-pyrazol-5-yl)cyclopentyl isopropylcarbamate]",16,1080
"CC(C)NC(=O)O[C@H]1CC[C@@H](c2cc(Nc3ccc4c(c3)S(=O)(=O)NC4)n[nH]2)C1 (relative stereo) [Example 3, cis-3-(3-((1,1-dioxido-2,3-dihydrobenzo[d]isothiazol-6-yl)amino)-1H-pyrazol-5-yl)cyclopentyl isopropylcarbamate]",1.2,29
"CCCNC(=O)O[C@H]1CC[C@@H](c2cc(Nc3ccc4c(c3F)CS(=O)(=O)N4C3COC3)n[nH]2)C1 (single isomer, unassigned) [Example 260b, cis-3-(3-((4-fluoro-1-(oxetan-3-yl)-2,2-dioxido-1,3-dihydrobenzo[c]isothiazol-5-yl)amino)-1H-pyrazol-5-yl)cyclopentyl propylcarbamate]",3.4,103
"CC(NC(=O)O[C@H]1CC[C@@H](c2cc(Nc3ccc4c(c3F)CN(C3CC3)S4(=O)=O)n[nH]2)C1)C1COC1 (relative stereo) [Example 357, cis-3-(3-((2-cyclopropyl-4-fluoro-1,1-dioxido-2,3-dihydrobenzo[d]isothiazol-5-yl)amino)-1H-pyrazol-5-yl)cyclopentyl(1-(oxetan-3-yl)ethyl)carbamate]",23,817
"CC(C)NC(=O)O[C@H]1CC[C@@H](c2cc(Nc3ccc4c(c3F)CN(C(C)C)S4(=O)=O)n[nH]2)C1 (relative stereo) [Example 65, cis-3-(3-((4-fluoro-2-isopropyl-1,1-dioxido-2,3-dihydrobenzo[d]isothiazol-5-yl)amino)-1H-pyrazol-5-yl)cyclopentyl isopropylcarbamate]",6.9,299
"CC(C)NC(=O)O[C@H]1CC[C@@H](c2cc(Nc3cnc4c(c3)CNS4(=O)=O)n[nH]2)C1 (relative stereo) [Example 31, cis-3-(3-((1,1-dioxido-2,3-dihydroisothiazolo[5,4-b]pyridin-5-yl)amino)-1H-pyrazol-5-yl)cyclopentyl isopropylcarbamate]",7,166
"CC(C)NC(=O)O[C@H]1CC[C@@H](c2cc(Nc3ccc4c(c3F)CN(C3CCCN(C)C3=O)S4(=O)=O)n[nH]2)C1 (relative stereo) [Example 88, cis-3-(3-((4-fluoro-2-(1-methyl-2-oxopiperidin-3-yl)-1,1-dioxido-2,3-dihydrobenzo[d]isothiazol-5-yl)amino)-1H-pyrazol-5-yl)cyclopentyl isopropylcarbamate]",10,1010
"CC(C)(O)CNC(=O)O[C@H]1CC[C@@H](c2cc(Nc3ccc4c(c3F)CNS4(=O)=O)n[nH]2)C1 (relative stereo) [Example 146, cis-3-(3-((4-fluoro-1,1-dioxido-2,3-dihydrobenzo[d]isothiazol-5-yl)amino)-1H-pyrazol-5-yl)cyclopentyl(2-hydroxy-2-methylpropyl)carbamate]",8.1,323
"CC(C)NC(=O)O[C@H]1CC[C@@H](c2cc(Nc3ccc4c(c3F)CN(C(C)C3CCOC3)S4(=O)=O)n[nH]2)C1 (relative stereo) [Example 115, cis-3-(3-((4-fluoro-1,1-dioxido-2-(1-(tetrahydrofuran-3-yl)ethyl)-2,3-dihydrobenzo[d]isothiazol-5-yl)amino)-1H-pyrazol-5-yl)cyclopentyl isopropylcarbamate]",6,407
"CC(C)NC(=O)O[C@H]1CC[C@@H](c2cc(Nc3ccc4c(c3)CS(=O)(=O)N4CC(C)(C)O)n[nH]2)C1 (relative stereo) [Example 216, cis-3-(3-((1-(2-hydroxy-2-methylpropyl)-2,2-dioxido-1,3-dihydrobenzo[c]isothiazol-5-yl)amino)-1H-pyrazol-5-yl)cyclopentyl isopropylcarbamate]",7.8,54
"CC(C)NC(=O)O[C@H]1CC[C@@H](c2cc(Nc3ccc4c(c3F)CN(CC3CN(C)C3)S4(=O)=O)n[nH]2)C1 (relative stereo) [Example 106, cis-3-(3-((4-fluoro-2-((1-methylazetidin-3-yl)methyl)-1,1-dioxido-2,3-dihydrobenzo[d]isothiazol-5-yl)amino)-1H-pyrazol-5-yl)cyclopentyl isopropylcarbamate]",6,631
"Cc1cc(Nc2cc([C@@H]3CC[C@H](OC(=O)NC(C)C)C3)[nH]n2)cc2c1N(C)S(=O)(=O)C2 (relative stereo) [Example 245, cis-3-(3-((1,7-dimethyl-2,2-dioxido-1,3-dihydrobenzo[c]isothiazol-5-yl)amino)-1H-pyrazol-5-yl)cyclopentyl isopropylcarbamate]",44,941
"CC(C)NC(=O)O[C@H]1CC[C@@H](c2cc(Nc3cc(F)c4c(c3)CS(=O)(=O)N4C3COC3)n[nH]2)C1 (relative stereo) [Example 283, cis-3-(3-((7-fluoro-1-(oxetan-3-yl)-2,2-dioxido-1,3-dihydrobenzo[c]isothiazol-5-yl)amino)-1H-pyrazol-5-yl)cyclopentyl isopropylcarbamate]",3,56
"CC1(NC(=O)O[C@H]2CC[C@@H](c3cc(Nc4ccc5c(c4F)CNS5(=O)=O)n[nH]3)C2)COC1 (single isomer, unassigned) [Example 164a, cis-3-(3-((4-fluoro-1,1-dioxido-2,3-dihydrobenzo[d]isothiazol-5-yl)amino)-1H-pyrazol-5-yl)cyclopentyl(3-methyloxetan-3-yl)carbamate]",4.3,364
"CC1(NC(=O)O[C@H]2CC[C@@H](c3cc(Nc4ccc5c(c4)CCS(=O)(=O)N5)n[nH]3)C2)CC1 (single isomer, unassigned) [Example 249b, cis-3-(3-((2,2-dioxido-3,4-dihydro-1H-benzo[c][1,2]thiazin-6-yl)amino)-1H-pyrazol-5-yl)cyclopentyl(1-methylcyclopropyl)carbamate]",0.6,12
"CC[C@H](C)NC(=O)O[C@H]1CC[C@@H](c2cc(Nc3ccc4c(c3F)CN(C3COC3)S4(=O)=O)n[nH]2)C1 (single isomer, unassigned) [Example 134b]",1.3,120
"CC(C)NC(=O)O[C@H]1CC[C@@H](c2cc(Nc3ccc4c(c3)CS(=O)(=O)N4C(C)C)n[nH]2)C1 (relative stereo) [Example 202, cis-3-(3-((1-isopropyl-2,2-dioxido-1,3-dihydrobenzo[c]isothiazol-5-yl)amino)-1H-pyrazol-5-yl)cyclopentyl isopropylcarbamate]",6.2,98
"CC(C)NC(=O)O[C@H]1CC[C@@H](c2cc(Nc3ccc4c(c3)S(=O)(=O)NC4(C)C)n[nH]2)C1 (relative stereo) [Example 4, cis-3-(5-((3,3-dimethyl-1,1-dioxido-2,3-dihydrobenzo[d]isothiazol-6-yl)amino)-1H-pyrazol-3-yl)cyclopentyl isopropylcarbamate]",8.6,184
"CC1(NC(=O)O[C@H]2CC[C@@H](c3cc(Nc4ccc5c(c4)CS(=O)(=O)N5)n[nH]3)C2)CC1 (relative stereo) [Example 232, cis-3-(3-((2,2-dioxido-1,3-dihydrobenzo[c]isothiazol-5-yl)amino)-1H-pyrazol-5-yl)cyclopentyl(1-methylcyclopropyl)carbamate]",12,27
"CC(C)NC(=O)O[C@H]1CC[C@@H](c2cc(Nc3cc4c(cc3OC(F)(F)F)S(=O)(=O)NC4)n[nH]2)C1 (relative stereo) [Example 28, cis-3-(3-((1,1-dioxido-6-(trifluoromethoxy)-2,3-dihydrobenzo[d]isothiazol-5-yl)amino)-1H-pyrazol-5-yl)cyclopentyl isopropylcarbamate]",1260,> 10000
"CC(C)NC(=O)O[C@H]1CC[C@@H](c2cc(Nc3ccc4c(c3)CS(=O)(=O)N4CC3CN(C)C3)n[nH]2)C1 (relative stereo) [Example 213, cis-3-(3-((1-((1-methylazetidin-3-yl)methyl)-2,2-dioxido-1,3-dihydrobenzo[c]isothiazol-5-yl)amino)-1H-pyrazol-5-yl)cyclopentyl isopropylcarbamate]",2.7,30
"CC(C)NC(=O)O[C@H]1CC[C@@H](c2cc(Nc3ccc4c(c3F)CN(C3CCCNC3=O)S4(=O)=O)n[nH]2)C1 (relative stereo) [Example 86, cis-3-(3-((4-fluoro-1,1-dioxido-2-(2-oxopiperidin-3-yl)-2,3-dihydrobenzo[d]isothiazol-5-yl)amino)-1H-pyrazol-5-yl)cyclopentyl isopropylcarbamate]",7.8,735
"CC(C)NC(=O)O[C@H]1CC[C@@H](c2cc(Nc3ccc4c(c3F)S(=O)(=O)NC4)n[nH]2)C1 (single isomer, unassigned) [Example 186b, cis-3-(3-((7-fluoro-1,1-dioxido-2,3-dihydrobenzo[d]isothiazol-6-yl)amino)-1H-pyrazol-5-yl)cyclopentyl isopropylcarbamate]",1.7,44
